Measured values taken from the NIST ThermoML archive (doi:10.1016/j.jct.2012.08.030).

Assays:
[1] = xn = mol fraction of the nth substance listed; details: 101.3 kPa, Liquid; for speed of sound: Sing-around technique in a fixed-path interferometer; for mass density: Vibrating tube method
[2] = refractive index (Na D-line) (dimensionless); xn = mol fraction of the nth substance listed; details: 101.3 kPa, Liquid, Standard Abbe refractometry

CCCCn1cc[n+](C)c1.COS(=O)(=O)[O-] [1-butyl-3-methylimidazolium methyl sulfate] + CO
Details	mass density, [1] [kg/m3]	refractive index, [2]	speed of sound, [1] [m/s]
298.15 K, x1 = 0.0422	871.193	1.35708	1191.8
298.15 K, x1 = 0.094	942.4	1.38271	1273.9
298.15 K, x1 = 0.1857	1027.84	1.41321	1384.7
298.15 K, x1 = 0.2858	1084.79	1.43348	1464
298.15 K, x1 = 0.3729	1118.3	1.44537	1512.2
298.15 K, x1 = 0.4772	1146.38	1.45531	1553.5
298.15 K, x1 = 0.5769	1166.12	1.46226	1583.1
298.15 K, x1 = 0.6775	1181.29	1.46761	1606.1
298.15 K, x1 = 0.7947	1194.94	1.47248	1627
298.15 K, x1 = 0.8923	1204.14	1.47576	1641.7
298.15 K, x1 = 0.9526	1208.98	1.47744	1649.4
298.15 K, x1 = 1	1212.06	1.47824	1654.6
303.15 K, x1 = 0.0422	866.765	1.35523	1176.5
303.15 K, x1 = 0.094	938.21	1.38094	1259.6
303.15 K, x1 = 0.1857	1023.91	1.41156	1371.1
303.15 K, x1 = 0.2858	1081.04	1.43193	1450.9
303.15 K, x1 = 0.3729	1114.64	1.44388	1499.3
303.15 K, x1 = 0.4772	1142.82	1.45387	1540.9
303.15 K, x1 = 0.5769	1162.61	1.46087	1570.7
303.15 K, x1 = 0.6775	1177.83	1.46624	1593.8
303.15 K, x1 = 0.7947	1191.5	1.47111	1614.7
303.15 K, x1 = 0.8923	1200.73	1.4744	1629.5
303.15 K, x1 = 0.9526	1205.6	1.47608	1637.2
303.15 K, x1 = 1	1208.7	1.47704	1642.2
308.15 K, x1 = 0.0422	862.332	1.35331	1161.3
308.15 K, x1 = 0.094	934.013	1.37913	1245.1
308.15 K, x1 = 0.1857	1019.99	1.4099	1357.5
308.15 K, x1 = 0.2858	1077.29	1.43036	1437.7
308.15 K, x1 = 0.3729	1111	1.44239	1486.4
308.15 K, x1 = 0.4772	1139.26	1.45242	1528.2
308.15 K, x1 = 0.5769	1159.12	1.45945	1558.2
308.15 K, x1 = 0.6775	1174.38	1.46485	1581.4
308.15 K, x1 = 0.7947	1188.07	1.46972	1602.4
308.15 K, x1 = 0.8923	1197.33	1.47303	1617.2
308.15 K, x1 = 0.9526	1202.23	1.47475	1624.9
308.15 K, x1 = 1	1205.35	1.47577	1630
313.15 K, x1 = 0.0422	857.888	1.35141	1146.2
313.15 K, x1 = 0.094	929.815	1.37735	1230.8
313.15 K, x1 = 0.1857	1016.06	1.40827	1343.9
313.15 K, x1 = 0.2858	1073.54	1.4288	1424.6
313.15 K, x1 = 0.3729	1107.37	1.4409	1473.6
313.15 K, x1 = 0.4772	1135.72	1.45097	1515.7
313.15 K, x1 = 0.5769	1155.64	1.45804	1545.9
313.15 K, x1 = 0.6775	1170.94	1.46348	1569.2
313.15 K, x1 = 0.7947	1184.65	1.46836	1590.3
313.15 K, x1 = 0.8923	1193.93	1.47168	1605.1
313.15 K, x1 = 0.9526	1198.87	1.47338	1612.9
313.15 K, x1 = 1	1202.01	1.47443	1617.9
